SMILES strings stand for the structures. Structures can show the parent of a compound that is named as a salt.

In the first series the test system is extracellular levels of dopamine, norepinephrine and serotonin in p.f. cortex and striatum. Kind of series: In vivo microdialysis in awake and freely moving rats. Set-up: species or system rat. The following applies: 10 mg/kg s.c., FIG. 21.
Consider `CN1CCN2c3ncccc3Cc3ccccc3C2C1` (stereo not drawn) [mirtazapine], for which the “cortical NE levels” value is “marked increases in cortical NE levels”; the “extracellular norepinephrine and dopamine in the cortex” value was “increase predominantly extracellullar norepinephrine and dopamine in the cortex”.

A further series has as its system DOPAC levels (3,4-dihydroxyphenylacetic acid) in the rat striatum.
Assay: not given
The following applies: 100 μmol/kg s.c., %-increase from control value, data taken from Table 2 in Ref 1 (J. Med. Chem. 1994, 37, 2735); cited from earlier work.
`CCCN1CCC[C@@H](c2cccc(S(C)(=O)=O)c2)C1` [Example 16 of ref. 1]: the DOPAC %-increase entry is “+150^2%”.

For a further series the test system is unchanged. Kind of series: Tissue content of DOPAC in rat striatum after systemic administration of test compound (in vivo neurochemistry). To be noted: Rattus norvegicus, sc, 1 h, read-out: DOPAC %-increase, rat striatum, 100 μmol/kg s.c., %-increase from control value, 60 minutes after administration. As for the experimental part: The measurement of the tissue content of DOPAC is well established in the field of research since the 1960's. In short, male Sprague-Dawely rats are administered the test compound 60 minutes prior to decapitation. The brain is rapidly taken out and dissected. The striatum is rapidly frozen and subsequently quantitatively analysed with respect to its content of DOPAC by means of HPLC and electrochemical detection. The number of animals used for each test compound/vehicle is 4/group.
Male Sprague-Dawley rats weighing 220-320 g are used throughout the experiments. Sixty (60) minutes following administration of the test substance, the rats are decapitated. Directly after decapitation the brain is removed from the skull and put on a glass petri bowl filled with ice. The limbic system (containing the nucleus accumbens—both the core and shell, most parts of the olfactory tubercle and ventral pallidum) is dissected using two thin, angled tweezers and put directly on foil on dry ice (carbon dioxide −78° C.). The striatum and cortex are then dissected and also put on dry ice. The time from decapitation until the last tissue is dissected varies from four to six minutes. The tissue is weighed using a Sartorius BP3105 connected to a computer and packed in labelled tin foil, then stored in an −80° C. freezer. Great care is taken in order to keep the tissue frozen until the time of neurochemical analysis. Each brain part is subsequently analyzed with respect to its content of monoamines and their metabolites.
The monoamine transmitter substances (NE (norepinephrine), DA (dopamine), 5-HT (serotonin)) as well as their amine (NM (normethanephrine), 3-MT (3-methoxy-tyramine)) and acid (DOPAC (3,4-dihydroxyphenylacetic acid), 5-HIAA (5-hydroxyindoleacetic acid), HVA (homovanillic acid)) metabolites are quantified in brain tissue homogenates by HPLC separations and electrochemical detection.
The analytical method is based on two chromatographic separations dedicated for amines or acids. Two chromatographic systems share a common auto injector with a 10-port valve and two sample loops for simultaneous injection on the two systems. Both systems are equipped with a reverse phase column (Luna C18(2), dp 3 μm, 50*2 mm i.d., Phenomenex) and electrochemical detection is accomplished at two potentials on glassy carbon electrodes (MF-1000, Bioanalytical Systems, Inc.). The column effluent is passed via a T-connection to the detection cell or to a waste outlet. This is accomplished by two solenoid valves, which block either the waste or detector outlet. By preventing the chromatographic front from reaching the detector, better detection conditions are achieved. The aqueous mobile phase (0.4 mL/min) for the acid system contains citric acid 14 mM, sodium citrate 10 mM, MeOH 15% (v/v) and EDTA 0.1 mM. Detection potentials relative to Ag/AgCl reference are 0.45 and 0.60V. The aqueous ion pairing mobile phase (0.5 mL/min) for the amine system contains citric acid 5 mM, sodium citrate 10 mM, MeOH 9% (v/v), MeCN 10.5% (v/v), decane sulfonic acid 0.45 mM, and EDTA 0.1 mM. Detection potentials relative to Ag/AgCl reference are 0.45 and 0.65V.
Take `CCN1CCC(O)(c2ccc(F)c(Cl)c2)C1` (stereo not drawn) [Example 3, 3-(3-CHLORO-4-FLUOROPHENYL)-1-ETHYLPYRROLIDIN-3-OL]: the change in vivo at 100 µmol/kg was -28%. Regarding `CCN1CCC(O)(c2cc(F)cc(Cl)c2)C1` (stereo not drawn) [Example 5, 3-(3-CHLORO-5-FLUOROPHENYL)-1-ETHYLPYRROLIDIN-3-OL], the change in vivo at 100 µmol/kg is -26%. Regarding `CCN1CCC(O)(c2cc(Cl)cc(Cl)c2)C1` (stereo not drawn) [Example 6, 3-(3,5-DICHLOROPHENYL)-1-ETHYLPYRROLIDIN-3-OL], the change in vivo at 100 µmol/kg was -10%. As to `CCCN1CCC(O)(c2ccc(F)c(F)c2)C1` (stereo not drawn) [Example 7, 3-(3,4-DIFLUOROPHENYL)-1-PROPYLPYRROLIDIN-3-OL], the change in vivo at 100 µmol/kg came out at 0%. Same read-out and setting: as for `CCCN1CCC(O)(c2cc(F)cc(F)c2)C1` (stereo not drawn) [Example 9, 3-(3,5-DIFLUOROPHENYL)-1-PROPYLPYRROLIDIN-3-OL], the figure is -5%; as for `CCN1CCC(O)(c2ccc(Cl)c(Cl)c2)C1` (stereo not drawn) [Example 10, 3-(3,4-DICHLOROPHENYL)-1-ETHYLPYRROLIDIN-3-OL], -26%; as for `CCN1CCC(O)(c2ccc(F)c(F)c2)C1` (stereo not drawn) [Example 12, 3-(3,4-DIFLUOROPHENYL)-1-ETHYLPYRROLIDIN-3-OL], -19%.

Staying with this series, now noted: rat striatum, 100 μmol/kg s.c., %-increase from control value, 60 minutes after administration.
In the case of `CCN1CCC(O)(c2cc(F)cc(F)c2)C1` (single isomer, unassigned; (+)) [Example 2, (+)-3-(3,5-DIFLUOROPHENYL)-1-ETHYLPYRROLIDIN-3-OL], the DOPAC %-increase is reported as −16%. In the case of `CCN1CCC(O)(c2cccc(F)c2F)C1` (single isomer, unassigned; (+)) [Example 36, (+)-3-(2,3-DIFLUOROPHENYL)-1-ETHYLPYRROLIDIN-3-OL], the DOPAC %-increase is −15%. On to `CCN1CCC(O)(c2cc(F)cc(F)c2)C1` (single isomer, unassigned; (-)) [Example 1, (−)-3-(3,5-DIFLUOROPHENYL)-1-ETHYLPYRROLIDIN-3-OL], for which the DOPAC %-increase is given as 0%. As for `CCN1CCC(O)(c2cccc(F)c2F)C1` (single isomer, unassigned; (-)) [Example 32, (−)-3-(2,3-DIFLUOROPHENYL)-1-ETHYLPYRROLIDIN-3-OL], the DOPAC %-increase result is reported as “+8%”.

For the molecule `CCN1CCC(O)(c2cccc(F)c2F)C1` (stereo not drawn) [Example 4, 3-(2,3-DIFLUOROPHENYL)-1-ETHYLPYRROLIDIN-3-OL], the DOPAC %-increase was −10%. For `CCN1CCC(O)(c2cc(F)cc(F)c2)C1` (stereo not drawn) [Example 8, 3-(3,5-DIFLUOROPHENYL)-1-ETHYLPYRROLIDIN-3-OL], the DOPAC %-increase is −24%.

Still in this series, the particulars now being: sc, 1 h; rat striatum, 100 μmol/kg s.c., %-increase from control value, 60 minutes after administration; read-out: DOPAC %-increase.
As for `CN1CCC(F)(c2cc(F)cc(F)c2)C1` (stereo not drawn) [Example 11, 3-(3,5-DIFLUOROPHENYL)-3-FLUORO-1-METHYLPYRROLIDINE], the change in vivo at 100 µmol/kg is -4%.

System in another series: not given
Assay: not given
Details: not given
The molecule `CN1CCC(O)(c2cccc(F)c2F)C1` (stereo not drawn) (as salt: oxalic acid salt) [Example 59] came in with a melting point of 131 to 132 °C. Same read-out and setting: as for `CC(C)CN1CCC(O)(c2cccc(F)c2F)C1` (stereo not drawn) (as salt: oxalic acid salt) [Example 61], the figure is 168 to 169 °C. Consider `C=CCN1CCC(O)(c2cccc(F)c2F)C1` (stereo not drawn) (as salt: oxalic acid salt) [Example 62], for which the melting point is 119 to 120 °C. Molecule `OC1(c2cccc(F)c2F)CCN(CC2CC2)C1` (stereo not drawn) (as salt: oxalic acid salt) [Example 64] registered a melting point of 170 to 171 °C.

In turn, `CN1CCC(O)(c2cc(F)cc(Cl)c2)C1` (stereo not drawn) (as salt: oxalic acid salt) [Example 65] had a melting point of 117 to 118 °C.

Regarding `CN1CCC(O)(c2cc(F)cc(Cl)c2)C1` (stereo not drawn) (as salt: oxalic acid salt) [Example 66], the melting point lay in the range of 114 to 115 °C. Consider `CCN1CCC(O)(c2cc(F)cc(Cl)c2)C1` (stereo not drawn) (as salt: oxalic acid salt) [Example 67], for which the melting point lay within 113 to 114 °C. The molecule `CCN1CCC(O)(c2cc(F)cc(F)c2)C1` (single isomer, unassigned; (+)) (as salt: oxalic acid salt) [Example 2, (+)-3-(3,5-DIFLUOROPHENYL)-1-ETHYLPYRROLIDIN-3-OL] had a melting point of 137 to 139 °C. With `COCCN1CCC(O)(c2cc(F)cc(F)c2)C1` (single isomer, unassigned; (+)) (as salt: oxalic acid salt) [Example 54, (+)-3-(3,5-DIFLUOROPHENYL)-1-(2-METHOXYETHYL)PYRROLIDIN-3-OL], the melting point was in the range of 131 to 132 °C. `COCCN1CCC(O)(c2cccc(F)c2F)C1` (single isomer, unassigned; (+)) (as salt: oxalic acid salt) [Example 60, (+)-3-(2,3-DIFLUOROPHENYL)-1-(2-METHOXYETHYL)PYRROLIDIN-3-OL] displayed a melting point of 149 to 150 °C. For `OC1(c2cccc(F)c2F)CCN(CCC(F)(F)F)C1` (single isomer, unassigned; (+)) (as salt: oxalic acid salt) [Example 63, (+)-3-(2,3-DIFLUOROPHENYL)-1-(3,3,3-TRIFLUOROPROPYL)PYRROLIDIN-3-OL], the melting point was 144 to 145 °C.

With `CCN1CCC(O)(c2cc(F)cc(F)c2)C1` (single isomer, unassigned; (-)) (as salt: oxalic acid salt) [Example 1, (−)-3-(3,5-DIFLUOROPHENYL)-1-ETHYLPYRROLIDIN-3-OL], the melting point fell in the range of 111 to 112 °C. `CCN1CCC(O)(c2cccc(F)c2F)C1` (single isomer, unassigned; (-)) (as salt: oxalic acid salt) [Example 32, (−)-3-(2,3-DIFLUOROPHENYL)-1-ETHYLPYRROLIDIN-3-OL] displayed a melting point of 118 to 120 °C.

For the molecule `COCCN1CCC(O)(c2cccc(F)c2F)C1` (single isomer, unassigned; (-)) (as salt: oxalic acid salt) [Example 42, (−)-3-(2,3-DIFLUOROPHENYL)-1-(2-METHOXYETHYL)PYRROLIDIN-3-OL], the melting point was 146.7 °C. For the molecule `COCCN1CCC(O)(c2cc(F)cc(F)c2)C1` (single isomer, unassigned; (-)) (as salt: oxalic acid salt) [Example 45, (−)-3-(3,5-DIFLUOROPHENYL)-1-(2-METHOXYETHYL)PYRROLIDIN-3-OL], the melting point is 130 to 131 °C.

Regarding `OC1(c2cccc(F)c2F)CCN(CCC(F)(F)F)C1` (single isomer, unassigned; (-)) (as salt: oxalic acid salt) [Example 48, (−)-3-(2,3-DIFLUOROPHENYL)-1-(3,3,3-TRIFLUOROPROPYL)PYRROLIDIN-3-OL], the melting point was determined as 144 °C.

What is called melting point is the temperature, or range, at which the solid turns liquid.

Source of the values: US8188301B2, “Disubstituted phenylpyrrolidines as modulators of cortical catecholaminergic neurotransmission” (NSAB, Filial af NeuroSearch Sweden AB, Sverige, priority 2007, dated 2012).
